Drawing on patent US8350026B2, “VEGF-2 receptor and protein tyrosine kinase inhibitors and pharmaceutical use thereof” (Leo Pharma A/S, priority 2008, dated 2013), this text covers IC50, CL/F and CLint scaled for 11 molecules.

pIC50: −log10 of the molar value.

The target of one data set is T1, VEGFR-2 (KDR) (Homo sapiens, UniProt P35968).
T1 construct: purchased Millipore 14-630
Kind of data set: KDR Assay - HTRF KinEASE-TK (in vitro KDR inhibition). The data set is classed as biochemical. The note with it: ATP 100 μM, 15 minutes at rt. As for the experimental part: KDR Assay—HTRF KinEASE-TK
The compounds to be tested were dissolved in DMSO at 10 mM, stored at −20° C. and protected from light. The maximum concentration of DMSO in the in vitro assay was 0.75%. Control samples received the same concentration of solvent as the samples treated with the test compounds.
For the kinase assays, the HTRF KinEase™-TK kit (CisBio (#62TKOPEJ) was used. All components in HTRF KinEase™-TK kit were handled according to suppliers description. Briefly, DMSO stock solution of compounds (100% DMSO) were prediluted to 6% DMSO in 50 mM Hepesbuffer+0.05% BSA (Sigma Aldrich (A3294)) before transferring 1 μl to a 384-well Proxyplate (Perkin Elmer (#6008289) at RT. Kinase Substrate (2 μL, CisBio) was added to Proxyplate with compound. Enzyme mix (5 μL, Millipore (14-630)) with ATP (100 μM, Sigma Aldrich (A7699)), MgCl2 (5 mM; Sigma Aldrich M1028) and SEB (50 nM, CisBio) was added to start the reaction. The plates were incubated for 15 minutes at rt. The assay was stopped by addition of Detection mix (4 μL, CisBio) and plates were sealed and spun for 1 min at 1000 rpm. The plates were incubated in darkness over night at rt. The plates were read on an Envision (Perkin Elmer) plate reader. Signal from two wave lengths (665 and 620 nm) upon excitation at 340 nm in accordance to manufactures instructions. Briefly, fluorescence was measured for 400 μs between flashes after a delay time of 400 μs. The background measured in the absence of enzyme was subtracted from all samples. The molar concentrations that inhibited 50% of the maximal enzymatic activity (IC50) were calculated using a four-parameter sigmoid curve fit model of the dose-response curve, based on the following equation: y=((a−d)/(1+(x/c)^b))+d; where a is the minimum value, d is the maximum value, c is the IC50 value and […].

A short description of data set [1]: Metabolic stability in human liver microsomes (HLM). Type of data set: in vitro ADME. More on the design: CLint scaled: dose or concentration left out as unconfirmed. The conditions noted are these: both sexes, pH 7.4; for CL/F at 0.5 μM: human liver microsomes 0.5 mg protein/mL, NADPH 1 mM, test compound 0.5 μM, 37° C., 30 minutes, read-out: HLM (apparent clearance). As for the experimental part: The metabolic stability is tested in human liver microsomes (In Vitro Technologies, pooled mixed sexes, 20 mg/mL); a subcellular fraction containing major drug-metabolizing phase I enzymes, including the cytochrome P450 (CYP) family and flavin monooxygenases (FMO). The apparent clearance (mL/min/kg) is calculated as a measurement of test compound elimination from the liver.
Procedure: A human microsome incubation mixture (0.5 mg microsomal protein/mL) in phosphate buffer (pH 7.4, 100 mM KH2PO4/10 mM MgCl2) is mixed with NADPH (1 mM). The mixture is pre-heated (7 min) to 37° C., test compound (0.5 μM) is added, and the mixture is incubated for 30 minutes. Incubations are run in duplicate and performed by a Tecan RSP. Samples are withdrawn at 0, 5, 10, 20, and 30 min and mixed with methanol containing internal standard to terminate all enzyme activity and precipitate proteins. […] Samples are analysed by LC-MS/MS.
Data analysis: The logarithm of the peak area ratios of test compound to internal standard versus incubation time is plotted in a graph. The rate constant (k) of test compound depletion is calculated from the linear part of the curve (Eq. 1) and the half-time (t1/2) is calculated from the slope (Eq. 2). Rate constant(k)(min^−1)=−slope Eq. 1 Half-time(t1/2)(min)=ln 2/k Eq. 2
Clint(mL/min/mg protein)=k/Protein concentration Eq. 3
In general terms: Liver microsomes are vesicles of endoplasmic reticulum, rich in cytochrome P450 enzymes.

The mark [2] stands for this setting: human, human liver microsomes, HLM assay reference compounds, read-out: intrinsic clearance values of HLM assay reference compounds.

T1 sequence (P35968 790-1356 limits assumed): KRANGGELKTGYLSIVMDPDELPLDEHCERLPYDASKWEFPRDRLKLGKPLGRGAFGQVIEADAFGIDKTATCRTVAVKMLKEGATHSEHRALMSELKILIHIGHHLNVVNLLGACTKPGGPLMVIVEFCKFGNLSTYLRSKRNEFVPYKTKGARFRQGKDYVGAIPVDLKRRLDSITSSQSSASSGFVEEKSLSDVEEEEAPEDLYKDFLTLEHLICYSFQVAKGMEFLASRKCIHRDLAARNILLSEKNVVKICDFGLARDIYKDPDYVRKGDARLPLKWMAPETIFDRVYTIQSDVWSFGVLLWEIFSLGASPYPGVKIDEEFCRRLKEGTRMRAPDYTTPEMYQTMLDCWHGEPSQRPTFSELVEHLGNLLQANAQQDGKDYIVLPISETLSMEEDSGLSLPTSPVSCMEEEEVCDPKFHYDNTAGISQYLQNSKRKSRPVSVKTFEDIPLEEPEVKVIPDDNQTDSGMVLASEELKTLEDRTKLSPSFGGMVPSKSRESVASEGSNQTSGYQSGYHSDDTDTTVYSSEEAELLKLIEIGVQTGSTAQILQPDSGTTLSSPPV

One may read the pIC50 as −log10 of the IC50, conventionally taken in molar units. Consider `COC(=O)Nc1cc(CNc2ccccc2C(=O)NCCC(C)(C)C)ccn1` [Compound 101, (4-{[2-(3,3-Dimethyl-butylcarbamoyl)-phenylamino]-methyl}-pyridin-2-yl)-carbamic acid methyl ester], for which the pIC50 against VEGFR-2 (KDR) is 7.96. The CL/F at 0.5 μM in data set [1] stood at 135 mL/min/kg. In turn, `CC(=O)Nc1cc(CNc2ccccc2C(=O)NCCC2CCCC2)ccn1` [Compound 102, 2-[(2-Acetylamino-pyridin-4-ylmethyl)-amino]-N-(2-cyclopentyl-ethyl)-benzamide] showed a pIC50 against VEGFR-2 (KDR) of 8.10. Further, the CL/F at 0.5 μM in data set [1] is over 200 mL/min/kg.

Molecule `CCC(CC)CCNC(=O)c1ccccc1NCc1ccnc(NC(C)=O)c1` [Compound 103, 2-[(2-Acetylamino-pyridin-4-ylmethyl)-amino]-N-(3-ethyl-pentyl)-benzamide] had a pIC50 at VEGFR-2 (KDR) of 7.72. The CL/F at 0.5 μM in data set [1] was over 200 mL/min/kg. For `CCC(CC)CCNC(=O)c1ccccc1NCc1ccnc(NC(=O)c2cnco2)c1` [Compound 104, Oxazole-5-carboxylic acid (4-{[2-(3-ethyl-pentylcarbamoyl)-phenylamino]-methyl}-pyridin-2-yl)-amide], on VEGFR-2 (KDR), the negative-log IC50 (pIC50) was 7.82. Besides, the CL/F at 0.5 μM in data set [1] came to 120 mL/min/kg.

In the case of `O=C(Nc1cc(CNc2ccccc2C(=O)NCCC2CCCC2)ccn1)c1ccco1` [Compound 105, Furan-2-carboxylic acid (4-{[2-(2-cyclopentyl-ethylcarbamoyl)-phenylamino]-methyl}-pyridin-2-yl)-amide], the pIC50 at VEGFR-2 (KDR) was 7.37. In addition, in data set [1], the CL/F at 0.5 μM was over 200 mL/min/kg. Turning to `CC(C)CCCNC(=O)c1ccccc1NCc1ccnc(NC(=O)c2ccco2)c1` [Compound 106, Furan-2-carboxylic acid (4-{[2-(4-methyl-pentylcarbamoyl)-phenylamino]-methyl}-pyridin-2-yl)-amide], the pIC50 against VEGFR-2 (KDR) is 7.77. Moreover, the CL/F at 0.5 μM in data set [1] was over 200 mL/min/kg. `CC(C)(C)CCNC(=O)c1ccccc1NCc1ccnc(NC(=O)c2ccco2)c1` [Compound 107, Furan-2-carboxylic acid (4-{[2-(3,3-dimethyl-butylcarbamoyl)-phenylamino]-methyl}-pyridin-2-yl)-amide] had a pIC50 on VEGFR-2 (KDR) of 7.41. Also, the CL/F at 0.5 μM in data set [1] was over 200 mL/min/kg. Molecule `O=C(Nc1cc(CNc2ccccc2C(=O)NCCC2=CCCCC2)ccn1)c1ccco1` [Compound 108, Furan-2-carboxylic acid (4-{[2-(2-cyclohex-1-enyl-ethylcarbamoyl)-phenylamino]-methyl}-pyridin-2-yl)-amide] gave a pIC50 against VEGFR-2 (KDR) of 7.36. Further, in data set [1], the CL/F at 0.5 μM is over 200 mL/min/kg. Take `CCC(CC)CCNC(=O)c1ccccc1NCc1ccnc(NC(=O)c2ccco2)c1` [Compound 109, Furan-2-carboxylic acid (4-{[2-(3-ethyl-pentylcarbamoyl)-phenylamino]-methyl}-pyridin-2-yl)-amide]: on VEGFR-2 (KDR), the pIC50 is 7.28. Besides, the CL/F at 0.5 μM in data set [1] is over 200 mL/min/kg. Turning to `Cc1ncc2n1-c1ccc(Cl)cc1C(c1ccccc1F)=NC2` [Midazolam, reference compound], the CLint scaled in data set [1] (setting [2]) is over 200 mL/min/kg. On to `CC(=O)CC(c1ccccc1)c1c(O)c2ccccc2oc1=O` (centres unmarked) [Warfarin, reference compound], for which, in data set [1] (setting [2]), the CLint scaled at 0.5 μM was under 10 mL/min/kg.
